Source: patent publication US12077503B2, “Substituted cyclic amides and their use as herbicides” (FMC CORPORATION, priority 2015, dated 2024)

Experiments:
Assay in all cases: Test C preemergence
Assay type in all cases: in vivo
[1] = test system: Galium (catchweed bedstraw, Galium aparine); conditions: for Plant response rating, Galium: scale 0 to 100, 0 no effect, 100 complete control
Method in brief: (§1)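 Herbicidal effect, applied preemergence to sown seeds or postemergence to 1- to 4-leaf plants, was scored visually 13 to 15 d after application, 0 to 100 versus controls.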

[2] = test system: barnyardgrass (Echinochloa crus-galli); conditions: for Plant response rating, Barnyardgrass: scale 0 to 100, 0 no effect, 100 complete control
Method in brief: as §1

[3] = test system: blackgrass (Alopecurus myosuroides); conditions: for Plant response rating, Blackgrass: scale 0 to 100, 0 no effect, 100 complete control
Method in brief: as §1

[4] = test system: corn (Zea mays); conditions: for Plant response rating, Corn: scale 0 to 100, 0 no effect, 100 complete control
Method in brief: as §1

[5] = test system: crabgrass, large (large crabgrass, Digitaria sanguinalis); conditions: for Plant response rating, Crabgrass, Large: scale 0 to 100, 0 no effect, 100 complete control
Method in brief: as §1

[6] = test system: foxtail, giant (giant foxtail, Setaria faberii); conditions: for Plant response rating, Foxtail, Giant: scale 0 to 100, 0 no effect, 100 complete control
Method in brief: as §1

[7] = test system: lambsquarters (Chenopodium album); conditions: for Plant response rating, Lambsquarters: scale 0 to 100, 0 no effect, 100 complete control
Method in brief: as §1

[8] = test system: morningglory (Ipomoea coccinea); conditions: for Plant response rating, Morningglory: scale 0 to 100, 0 no effect, 100 complete control
Method in brief: as §1

[9] = test system: nutsedge, yellow (yellow nutsedge, Cyperus esculentus); conditions: for Plant response rating, Nutsedge, Yellow: scale 0 to 100, 0 no effect, 100 complete control
Method in brief: as §1

[10] = test system: oilseed rape (Brassica napus); conditions: for Plant response rating, Oilseed Rape: scale 0 to 100, 0 no effect, 100 complete control
Method in brief: as §1

[11] = test system: pigweed (Amaranthus retroflexus); conditions: for Plant response rating, Pigweed: scale 0 to 100, 0 no effect, 100 complete control
Method in brief: as §1

[12] = test system: ragweed (common ragweed, Ambrosia elatior); conditions: for Plant response rating, Ragweed: scale 0 to 100, 0 no effect, 100 complete control
Method in brief: as §1

[13] = test system: ryegrass, Italian (Italian ryegrass, Lolium multiflorum); conditions: for Plant response rating, Ryegrass, Italian: scale 0 to 100, 0 no effect, 100 complete control
Method in brief: as §1

[14] = test system: soybean (Glycine max); conditions: for Plant response rating, Soybean: scale 0 to 100, 0 no effect, 100 complete control
Method in brief: as §1

[15] = test system: velvetleaf (Abutilon theophrasti); conditions: for Plant response rating, Velvetleaf: scale 0 to 100, 0 no effect, 100 complete control
Method in brief: as §1

[16] = test system: waterhemp (common waterhemp, Amaranthus rudis); conditions: for Plant response rating, Waterhemp: scale 0 to 100, 0 no effect, 100 complete control
Method in brief: as §1

[17] = test system: wheat (winter wheat, Triticum aestivum); conditions: for Plant response rating, Wheat: scale 0 to 100, 0 no effect, 100 complete control
Method in brief: as §1

[18] = 31 g ai/ha, 0 is no effect, 100 is complete control

## CN1CC(c2ccc(C(F)(F)F)cc2)C(C(=O)Nc2ccccc2S(C)(=O)=O)C1=O (centres unmarked) [Compound 624]
[1]; [18]
  Plant response rating (scale of 0 to 100), Galium: 50
[1]; 62 g ai/ha
  Plant response rating, Galium: 85
[1]; 125 g ai/ha
  Plant response rating, Galium: 80
[1]; 250 g ai/ha
  Plant response rating, Galium: 85
[2]; [18]
  Plant response rating (scale of 0 to 100), Barnyardgrass: 75
[2]; 62 g ai/ha
  Plant response rating, Barnyardgrass: 90
[2]; 125 g ai/ha
  Plant response rating, Barnyardgrass: 95
[2]; 250 g ai/ha
  Plant response rating, Barnyardgrass: 95
[3]; [18]
  Plant response rating (scale of 0 to 100), Blackgrass: 50
[3]; 62 g ai/ha
  Plant response rating, Blackgrass: 70
[3]; 125 g ai/ha
  Plant response rating, Blackgrass: 90
[3]; 250 g ai/ha
  Plant response rating, Blackgrass: 90
[4]; [18]
  Plant response rating (scale of 0 to 100), Corn: 0
[4]; 62 g ai/ha
  Plant response rating, Corn: 0
[4]; 125 g ai/ha
  Plant response rating, Corn: 5
[4]; 250 g ai/ha
  Plant response rating, Corn: 65
[5]; [18]
  Plant response rating (scale of 0 to 100), Crabgrass, Large: 95
[5]; 62 g ai/ha
  Plant response rating, Crabgrass, Large: 100
[5]; 125 g ai/ha
  Plant response rating, Crabgrass, Large: 100
[5]; 250 g ai/ha
  Plant response rating, Crabgrass, Large: 98
[6]; [18]
  Plant response rating (scale of 0 to 100), Foxtail, Giant: 85
[6]; 62 g ai/ha
  Plant response rating, Foxtail, Giant: 90
[6]; 125 g ai/ha
  Plant response rating, Foxtail, Giant: 90
[6]; 250 g ai/ha
  Plant response rating, Foxtail, Giant: 95
[7]; [18]
  Plant response rating (scale of 0 to 100), Lambsquarters: 35
[7]; 62 g ai/ha
  Plant response rating, Lambsquarters: 40
[7]; 125 g ai/ha
  Plant response rating, Lambsquarters: 70
[7]; 250 g ai/ha
  Plant response rating, Lambsquarters: 60
[8]; [18]
  Plant response rating (scale of 0 to 100), Morningglory: 0
[8]; 62 g ai/ha
  Plant response rating, Morningglory: 0
[8]; 125 g ai/ha
  Plant response rating, Morningglory: 30
[8]; 250 g ai/ha
  Plant response rating, Morningglory: 35
[9]; [18]
  Plant response rating (scale of 0 to 100), Nutsedge, Yellow: 0
[9]; 62 g ai/ha
  Plant response rating, Nutsedge, Yellow: 0
[9]; 125 g ai/ha
  Plant response rating, Nutsedge, Yellow: 25
[9]; 250 g ai/ha
  Plant response rating, Nutsedge, Yellow: 50
[10]; [18]
  Plant response rating (scale of 0 to 100), Oilseed Rape: 75
[10]; 62 g ai/ha
  Plant response rating, Oilseed Rape: 80
[10]; 125 g ai/ha
  Plant response rating, Oilseed Rape: 85
[10]; 250 g ai/ha
  Plant response rating, Oilseed Rape: 85
[11]; [18]
  Plant response rating (scale of 0 to 100), Pigweed: 80
[11]; 62 g ai/ha
  Plant response rating, Pigweed: 85
[11]; 125 g ai/ha
  Plant response rating, Pigweed: 85
[11]; 250 g ai/ha
  Plant response rating, Pigweed: 90
[12]; [18]
  Plant response rating (scale of 0 to 100), Ragweed: 25
[12]; 62 g ai/ha
  Plant response rating, Ragweed: 55
[12]; 125 g ai/ha
  Plant response rating, Ragweed: 75
[12]; 250 g ai/ha
  Plant response rating, Ragweed: 80
[13]; [18]
  Plant response rating (scale of 0 to 100), Ryegrass, Italian: 10
[13]; 62 g ai/ha
  Plant response rating, Ryegrass, Italian: 40
[13]; 125 g ai/ha
  Plant response rating, Ryegrass, Italian: 30
[13]; 250 g ai/ha
  Plant response rating, Ryegrass, Italian: 30
[14]; [18]
  Plant response rating (scale of 0 to 100), Soybean: 0
[14]; 62 g ai/ha
  Plant response rating, Soybean: 0
[14]; 125 g ai/ha
  Plant response rating, Soybean: 15
[14]; 250 g ai/ha
  Plant response rating, Soybean: 40
[15]; [18]
  Plant response rating (scale of 0 to 100), Velvetleaf: 10
[15]; 62 g ai/ha
  Plant response rating, Velvetleaf: 30
[15]; 125 g ai/ha
  Plant response rating, Velvetleaf: 45
[15]; 250 g ai/ha
  Plant response rating, Velvetleaf: 65
[16]; [18]
  Plant response rating (scale of 0 to 100), Waterhemp: 85
[16]; 62 g ai/ha
  Plant response rating, Waterhemp: 90
[16]; 125 g ai/ha
  Plant response rating, Waterhemp: 90
[16]; 250 g ai/ha
  Plant response rating, Waterhemp: 100
[17]; [18]
  Plant response rating (scale of 0 to 100), Wheat: 0
[17]; 62 g ai/ha
  Plant response rating, Wheat: 35
[17]; 125 g ai/ha
  Plant response rating, Wheat: 45
[17]; 250 g ai/ha
  Plant response rating, Wheat: 80
